In patent publication US9837801B2, “Gas-insulated medium or high-voltage electrical apparatus including carbon dioxide, oxygen, and heptafluoro-isobutyronitrile” (Alstom Technology Ltd., priority 2013, dated 2017):

Assay: Toxicity (LC50, lethal concentration 50%)
Format: in vivo
From the text: In addition, […], toxicity is further reduced by […], which classifies it in the field of gases considered to be “practically non-toxic” (toxicity classification 5, according to the Hodge and Sterner toxicity scale).

## N#CC(F)(C(F)(F)F)C(F)(F)F [Heptafluoroisobutyronitrile, 2,3,3,3-tetrafluoro-2-trifluoromethyl propanenitrile]
humans
  specific toxicity for humans: no specific toxicity
Pure heptafluoroisobutyronitrile
  LC50 (lethal concentration, 50%): greater than 15,000 ppm
